We go through ten compounds from patent US7700782B2, “Compounds 569” (AstraZeneca AB, priority 2007, dated 2010).

Each structure is given as a SMILES string. Structures can show the parent of a compound that is named as a salt.

The target in this assay is T1, Adrenergic β2 (Homo sapiens, UniProt P07550).
T1 construct: Adherent H292 cells were removed from tissue culture flasks; endogenous in cells; host or cells: H292 cells
T1 sequence (P07550 whole entry): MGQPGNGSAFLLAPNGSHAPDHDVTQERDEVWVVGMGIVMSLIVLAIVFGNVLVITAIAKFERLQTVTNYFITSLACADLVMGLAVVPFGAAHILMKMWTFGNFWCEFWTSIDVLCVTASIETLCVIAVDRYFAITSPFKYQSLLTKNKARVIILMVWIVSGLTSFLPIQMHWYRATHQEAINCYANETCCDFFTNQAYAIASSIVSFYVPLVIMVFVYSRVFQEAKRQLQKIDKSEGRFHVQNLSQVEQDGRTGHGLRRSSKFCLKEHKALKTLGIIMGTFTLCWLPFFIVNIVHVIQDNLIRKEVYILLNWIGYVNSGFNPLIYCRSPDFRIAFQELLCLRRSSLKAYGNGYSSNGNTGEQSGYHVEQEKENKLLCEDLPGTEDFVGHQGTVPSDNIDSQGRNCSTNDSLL
Put plainly: Adrenergic β2 mediated cAMP production in H292 cells (AlphaScreen cAMP detection). To be noted: Intrinsic Activity, fraction relative to the maximum activity determined for formoterol. It is filed as cell-based. How it is done:
Adrenergic β2 Mediated cAMP Production
H292 cells were grown in 225 cm2 flasks incubator at 37° C., 5% CO2 in RPMI medium containing, 10% (v/v) FBS (foetal bovine serum) and 2 mM L-glutamine.
Adherent H292 cells were removed from tissue culture flasks by treatment with Accutase™ cell detachment solution for 15 minutes. Flasks were incubated for 15 minutes in a humidified incubator at 37° C., 5% CO2. Detached cells were re-suspended in RPMI media (containing 10% (v/v) FBS and 2 mM L-glutamine) at 0.05×10^6 cells per mL. 5000 cells in 100 μL were added to each well of a tissue-culture-treated 96-well plate and the cells incubated overnight in a humidified incubator at 37° C., 5% CO2. The culture media was removed and cells were washed twice with 100 μL assay buffer and replaced with 50 μL assay buffer (HBSS solution containing 10 mM HEPES pH 7.4 and 5 mM glucose). Cells were rested at room temperature for 20 minutes after which time 25 μL of rolipram (1.2 mM made up in assay buffer containing 2.4% (v/v) dimethylsulphoxide) was added. Cells were incubated with rolipram for 10 minutes after which time test compounds were added and the cells were incubated for 60 minutes at room temperature. The final rolipram concentration in the assay was 300 μM and final vehicle concentration was 1.6% (v/v) dimethylsulphoxide. The reaction was stopped by removing supernatants, washing once with 100 μL assay buffer and replacing with 50 μL lysis buffer. The cell monolayer was frozen at −80° C. for 30 minutes (or overnight).
The concentration of cAMP (cyclic adenosine monophosphate) in the cell lysate was determined using AlphaScreen™ methodology. The frozen cell plate was thawed for 20 minutes on a plate shaker then 10 μL of the cell lysate was transferred to a 96-well white plate. 40 μL of mixed AlphaScreen™ detection beads pre-incubated with biotinylated cAMP, was added to each well and the plate incubated at room temperature for 10 hours in the dark. The AlphaScreen™ signal was measured using an EnVision spectrophotometer (Perkin-Elmer Inc.) with the recommended manufacturer's settings. cAMP concentrations were determined by reference to a calibration curve determined in the same experiment using standard cAMP concentrations. Concentration response curves for agonists were constructed and data was fitted to a four parameter logistic equation to determine both the pEC50 and Intrinsic Activity. Intrinsic Activity was expressed as a fraction relative to the maximum activity determined for formoterol in each experiment.
With `O=C(CCNCCc1ccc(Cl)c(Cl)c1)N(CCNCCc1ccc(O)c2[nH]c(=O)sc12)C1CCOCC1` [Example 24, N^3-[2-(3,4-Dichlorophenyl)ethyl]-N-(2-{[2-(4-hydroxy-2-oxo-2,3-dihydro-1,3-benzothiazol-7-yl)ethyl]amino}ethyl)-N-(tetrahydro-2H-pyran-4-yl)-β-alaninamide bis-trifluoroacetic acid salt], the “β2 Int Act” value is 0.77.

`O=C(CCNCCc1ccc(Cl)cc1)N(CCNCCc1ccc(O)c2[nH]c(=O)sc12)C1CCOCC1` [Example 26, N^3-[2-(4-Chlorophenyl)ethyl]-N-(2-{[2-(4-hydroxy-2-oxo-2,3-dihydro-1,3-benzothiazol-7-yl)ethyl]amino}ethyl)-N-(tetrahydro-2H-pyran-4-yl)-β-alaninamide bis-trifluoroacetic acid salt]: the “β2 Int Act” value turned out to be 0.83.

`Cc1ccccc1CCNCCC(=O)N(CCNCCc1ccc(O)c2[nH]c(=O)sc12)C1CCOCC1` [Example 27, N-(2-{[2-(4-Hydroxy-2-oxo-2,3-dihydro-1,3-benzothiazol-7-yl)ethyl]amino}ethyl)-N^3-[2-(2-methylphenyl)ethyl]-N-(tetrahydro-2H-pyran-4-yl)-β-alaninamide bis-trifluoroacetic acid salt]: the “β2 Int Act” value is 0.95.

Regarding `O=C(CCNCCc1ccc(Cl)cc1)N(CCNCCc1ccc(O)c2[nH]c(=O)sc12)C1CCCC1` [Example 28, N^3-[2-(4-Chlorophenyl)ethyl]-N-cyclopentyl-N-(2-{[2-(4-hydroxy-2-oxo-2,3-dihydro-1,3-benzothiazol-7-yl)ethyl]amino}ethyl)-β-alaninamide bis-trifluoroacetic acid salt], the “β2 Int Act” value was found to be 0.87.

For `O=C(CCNCCc1ccccc1Cl)N(CCNCCc1ccc(O)c2[nH]c(=O)sc12)C1CCCC1` [Example 29, N^3-[2-(2-Chlorophenyl)ethyl]-N-cyclopentyl-N-(2-{[2-(4-hydroxy-2-oxo-2,3-dihydro-1,3-benzothiazol-7-yl)ethyl]amino}ethyl)-β-alaninamide bis-trifluoroacetic acid salt], the “β2 Int Act” value is recorded as 0.97.

For the compound `O=C(CCNCCc1cccc(Cl)c1)N(CCNCCc1ccc(O)c2[nH]c(=O)sc12)C1CCCC1` [Example 30, N^3-[2-(3-Chlorophenyl)ethyl]-N-cyclopentyl-N-(2-{[2-(4-hydroxy-2-oxo-2,3-dihydro-1,3-benzothiazol-7-yl)ethyl]amino}ethyl)-β-alaninamide bis-trifluoroacetic acid salt], the “β2 Int Act” value was found to be 0.96.

Take `C[C@H](CNCCC(=O)N(CCNCCc1ccc(O)c2[nH]c(=O)sc12)C1CCCC1)c1ccccc1` [Example 31, N-cyclopentyl-N-(2-{[2-(4-hydroxy-2-oxo-2,3-dihydro-1,3-benzothiazol-7-yl)ethyl]amino}ethyl)-N^3-[(2S)-2-phenylpropyl]-β-alaninamide bis-trifluoroacetic acid salt]: the “β2 Int Act” value worked out at 0.92.

As for `CC(C)(CNCCC(=O)N(CCNCCc1ccc(O)c2[nH]c(=O)sc12)C1CCCC1)c1ccccc1` [Example 32, N-cyclopentyl-N-(2-{[2-(4-hydroxy-2-oxo-2,3-dihydro-1,3-benzothiazol-7-yl)ethyl]amino}ethyl)-N^3-(2-methyl-2-phenylpropyl)-β-alaninamide bis-trifluoroacetic acid salt], the “β2 Int Act” value is 0.67.

On to `O=C(CCNCCc1ccccn1)N(CCNCCc1ccc(O)c2[nH]c(=O)sc12)C1CCCCC1` [Example 33, N-Cyclohexyl-N-(2-{[2-(4-hydroxy-2-oxo-2,3-dihydro-1,3-benzothiazol-7-yl)ethyl]amino}ethyl)-N^3-(2-pyridin-2-ylethyl)-β-alaninamide bis-trifluoroacetic acid salt], for which the “β2 Int Act” value was found to be 0.78.

`O=C(CCNCCc1ccc(O)cc1)N(CCNCCc1ccc(O)c2[nH]c(=O)sc12)C1CCCCC1` [Example 34, N-Cyclohexyl-N-(2-{[2-(4-hydroxy-2-oxo-2,3-dihydro-1,3-benzothiazol-7-yl)ethyl]amino}ethyl)-N^3-[2-(4-hydroxyphenyl)ethyl]-β-alaninamide bis-trifluoroacetic acid salt]: the “β2 Int Act” value was 0.75.
